Measured values taken from ChEMBL document CHEMBL5634141 (Eur J Med Chem, 2023).
Active and inactive are the calls of the source. The calls are words filed in the database; no cut-off is given here.

How the values were obtained:
Calu-1 [1] = experiment: Antiproliferative activity against human Calu-1 cells expressing KRAS G12C mutant assessed as relative cell viability at 30 nM incubated for 72 hrs in presence of naporafenib by CCK-8 assay; type: functional; settings: read-out: Activity
NCI-H23 [2] = experiment: Antiproliferative activity against human NCI-H23 cells expressing KRAS G12C mutant assessed as relative cell viability at 30 nM incubated for 72 hrs in presence of infigratinib by CCK-8 assay; type: functional; settings: read-out: Activity
[3] = tested on: von Hippel-Lindau disease tumor suppressor/GTPase KRas (Homo sapiens), P01116+P40337 [G12C]; experiment: PROTAC activity at VHL/KRAS G12C mutant in human MIA PaCa-2 cells assessed as induction of protein degradation in presence of MG132 by Western blot analysis; type: cell-based
NCI-H23 [4] = experiment: Antiproliferative activity against human NCI-H23 cells expressing KRAS G12C mutant assessed as relative cell viability at 30 nM incubated for 72 hrs in presence of MK-2206 by CCK-8 assay; type: functional; settings: read-out: Activity
NCI-H358 [5] = experiment: Antiproliferative activity against human NCI-H358 cells expressing KRAS G12C mutant assessed as relative cell viability at 30 nM incubated for 72 hrs by CCK-8 assay; type: functional; settings: read-out: Activity
MIA PaCa-2 [6] = experiment: Antiproliferative activity against human MIA PaCa-2 cells expressing KRAS G12C mutant assessed as relative cell viability at 30 nM incubated for 72 hrs in presence of naporafenib by CCK-8 assay; type: functional; settings: read-out: Activity
[7] = Toxicity in ICR mouse assessed as side effects at 30 mg/kg, ip measured after 24 hrs; type: organism-based; settings: in vivo
[8] = Half life in ICR mouse at 2 mg/kg, iv measured after 24 hrs by LC-MS/MS analysis; type: ADME, organism-based; settings: in vivo
[9] = tested on: von Hippel-Lindau disease tumor suppressor/GTPase KRas (Homo sapiens), P01116+P40337 [G12C]; experiment: PROTAC activity at VHL/KRAS G12C mutant in human MIA PaCa-2 cells assessed as inhibition of ERK phosphorylation by Western blotting analysis; type: cell-based
MIA PaCa-2 [10] = experiment: Inhibition of colony formation in human MIA PaCa-2 cells expressing KRAS G12C mutant assessed as reduction in cell number at 30 nM incubated for 14 days in presence of AZD4573 by crystal violet staining based analysis; type: functional; settings: time 14.0 day
MIA PaCa-2 [11] = experiment: Antiproliferative activity against human MIA PaCa-2 cells expressing KRAS G12C mutant assessed as inhibition of cell growth at 100 nM incubated for 8 days by CCK-8 assay; type: functional, cell-based; settings: time 8.0 day
MIA PaCa-2 [12] = experiment: Inhibition of colony formation in human MIA PaCa-2 cells expressing KRAS G12C mutant assessed as reduction in cell number at 30 nM incubated for 14 days in presence of SHP099 by crystal violet staining based analysis; type: functional; settings: time 14.0 day
SW837 [13] = experiment: Antiproliferative activity against human SW837 cells expressing KRAS G12C mutant assessed as relative cell viability at 30 nM incubated for 72 hrs in presence of crizotinib by CCK-8 assay; type: functional; settings: read-out: Activity
[14] = tested on: von Hippel-Lindau disease tumor suppressor/GTPase KRas (Homo sapiens), P01116+P40337 [G12C]; experiment: PROTAC activity at VHL/KRAS G12C mutant in human NCI-H358 cells assessed as induction of protein degradation at 300 nM incubated for 6 hrs by Western blotting analysis relative to control; type: cell-based
[15] = tested on: von Hippel-Lindau disease tumor suppressor/GTPase KRas (Homo sapiens), P01116+P40337 [G12C]; experiment: PROTAC activity at VHL/KRAS G12C mutant in human NCI-H358 cells assessed as induction of protein degradation at 100 nM preincubated with MLN4924 for 6 hrs followed by compound addition and measured after 48 hrs by Western blotting analysis; type: cell-based
[16] = Clearance in ICR mouse at 2 mg/kg, iv measured after 24 hrs by LC-MS/MS analysis; type: ADME, organism-based; settings: in vivo
[17] = Toxicity in ICR mouse assessed as side effects at 2 mg/kg, iv measured after 24 hrs; type: organism-based; settings: in vivo
ASPC1 = experiment: Antiproliferative activity against human ASPC1 cells expressing KRAS G12D mutant assessed as inhibition of cell growth incubated for 72 hrs by CCK-8 assay; type: functional, cell-based; settings: ASPC1, 72 h
[18] = AUC (0 to t) in ICR mouse at 2 mg/kg, iv measured after 24 hrs by LC-MS/MS analysis; type: ADME, organism-based; settings: in vivo
MIA PaCa-2 [19] = experiment: Antiproliferative activity against human MIA PaCa-2 cells expressing KRAS G12C mutant assessed as relative cell viability at 30 nM incubated for 72 hrs in presence of selumetinib by CCK-8 assay; type: functional; settings: read-out: Activity
[20] = Cmax in ICR mouse at 30 mg/kg, ip measured after 24 hrs by LC-MS/MS analysis; type: ADME, organism-based; settings: in vivo
NCI-H358 [21] = experiment: Antiproliferative activity against human NCI-H358 cells expressing KRAS G12C mutant assessed as relative cell viability at 30 nM incubated for 72 hrs in presence of naporafenib by CCK-8 assay; type: functional; settings: read-out: Activity
Calu-1 [22] = experiment: Antiproliferative activity against human Calu-1 cells expressing KRAS G12C mutant assessed as relative cell viability at 30 nM incubated for 72 hrs in presence of infigratinib by CCK-8 assay; type: functional; settings: read-out: Activity
MIA PaCa-2 [23] = experiment: Induction of apoptosis in human MIA PaCa-2 cells assessed as late apoptotic cells at 300 nM incubated for 48 hrs by Annexin V-FITC staining based flow cytometry analysis (reference value: 5.69 %); type: functional
Calu-1 [24] = experiment: Antiproliferative activity against human Calu-1 cells expressing KRAS G12C mutant assessed as relative cell viability at 30 nM incubated for 72 hrs by CCK-8 assay; type: functional; settings: Calu-1, read-out: Activity
NCI-H358 [25] = experiment: Antiproliferative activity against human NCI-H358 cells expressing KRAS G12C mutant assessed as inhibition of cell growth at 100 nM incubated for 8 days by CCK-8 assay; type: functional, cell-based; settings: time 8.0 day
MIA PaCa-2 [26] = experiment: Induction of apoptosis in human MIA PaCa-2 cells assessed as viable cells at 100 nM incubated for 48 hrs by Annexin V-FITC staining based flow cytometry analysis (reference value: 91.5 %); type: functional; settings: read-out: Activity
SW837 [27] = experiment: Antiproliferative activity against human SW837 cells expressing KRAS G12C mutant assessed as relative cell viability at 30 nM incubated for 72 hrs in presence of naporafenib by CCK-8 assay; type: functional; settings: read-out: Activity
MIA PaCa-2 [28] = experiment: Induction of apoptosis in human MIA PaCa-2 cells assessed as viable cells at 30 nM incubated for 48 hrs by Annexin V-FITC staining based flow cytometry analysis (reference value: 91.5 %); type: functional; settings: read-out: Activity
[29] = tested on: von Hippel-Lindau disease tumor suppressor/GTPase KRas (Homo sapiens), P01116+P40337 [G12C]; experiment: PROTAC activity at VHL/KRAS G12C mutant in human MIA PaCa-2 cells assessed as induction of protein degradation at 100 nM incubated for 1 to 8 days by Western blotting analysis; type: cell-based; settings: time 1-8 day
NCI-H358 [30] = experiment: Synergistic antiproliferative activity against human NCI-H358 cells expressing KRAS G12C mutant assessed as combination index at 30 nM incubated for 72 hrs in presence of selumetinib by CCK-8 assay; type: functional
[31] = tested on: von Hippel-Lindau disease tumor suppressor/GTPase KRas (Homo sapiens), P01116+P40337 [G12C]; experiment: PROTAC activity at VHL/KRAS G12C mutant in human MIA PaCa-2 cells assessed as induction of protein degradation at 100 nM incubated for 48 hrs by Western blotting analysis relative to control; type: cell-based
[32] = Volume of distribution at steady state in ICR mouse at 2 mg/kg, iv measured after 24 hrs by LC-MS/MS analysis; type: ADME, organism-based; settings: in vivo
[33] = tested on: von Hippel-Lindau disease tumor suppressor/GTPase KRas (Homo sapiens), P01116+P40337 [G12C]; experiment: PROTAC activity at VHL/KRAS G12C mutant in human NCI-H358 cells assessed as induction of protein degradation at 100 nM incubated for 48 hrs followed by compound washout by Western blotting analysis; type: cell-based

C=CC(=O)N1CCN(c2nc(=O)n(-c3c(C)ccnc3C(C)C)c3nc(-c4c(F)cccc4OCC4CCN(CCCC(=O)N[C@H](C(=O)N5C[C@H](O)C[C@H]5C(=O)NCc5ccc(-c6scnc6C)cc5)C(C)(C)C)CC4)c(F)cc23)[C@@H](C)C1
viability at 0.03 µM (Calu-1 [1]): 0.44% | viability at 0.03 µM (NCI-H23 [2]): 0.41% | Activity [3]: inactive | viability at 0.03 µM (NCI-H23 [4]): 0.44% | viability at 0.03 µM (NCI-H358 [5]): 0.83% | viability at 0.03 µM (MIA PaCa-2 [6]): 0.27% | Activity [7]: Non-Toxic | t1/2 [8]: 52.6 min | Activity [9]: Dose-Dependent Effect | inhibition (MIA PaCa-2 [10]): Active | Activity (MIA PaCa-2 [11]): Active | inhibition (MIA PaCa-2 [12]): Active | viability at 0.03 µM (SW837 [13]): 0.36% | Activity [14]: 50% | Activity [15]: inactive | clearance [16]: 84.2 mL/min/kg | Activity [17]: Non-Toxic | IC50 (ASPC1): > 10 µM | AUC(0-t) at 24 h [18]: 399 ng·h/mL | viability at 0.03 µM (MIA PaCa-2 [19]): 0.1% | Cmax [20]: 6460 ng/mL | viability at 0.03 µM (NCI-H358 [21]): 0.36% | viability at 0.03 µM (Calu-1 [22]): 0.36% | Activity (MIA PaCa-2 [23]): 19.9% | viability at 0.03 µM (Calu-1 [24]): 77% | Activity (NCI-H358 [25]): Active | viability at 0.1 µM (MIA PaCa-2 [26]): 75.7% | viability at 0.03 µM (SW837 [27]): 0.32% | viability at 0.03 µM (MIA PaCa-2 [28]): 88.8% | Activity [29]: Active | CI (NCI-H358 [30]): <1 | Activity [31]: 100% | Vdss [32]: 2 L/kg | Activity [33]: Active
